Columns and labels:
Type in all cases: in vivo
[1] = test system: Lolium multiflorum Lam. (Italian ryegrass, LOLMU); assay: Weight of the weed in wheat crop (Example 2); conditions: for % Decrease in weight of weed: versus untreated control
Experimental: (§1) Experiments were conducted to assess the efficacy of herbicidal combination comprising napropamide/napropamide-M to control a weed, Lolium multiflorum Lam. (Italian ryegrass, LOLMU) in wheat crop. The weed is resistant to control by conventional herbicides. Percentage efficacy of the herbicidal combination was determined over time (measured as days after anthesis, [DAA]) following application of the herbicidal combination comprising napropamide/napropamide-M and propisochlor. The herbicide combination was applied by spraying to LOLMU at pre-emergence stage.
Further, the effect of the herbicidal combination was also assessed for the weight of the weed in wheat crop and the results has been disclosed in Table 3.

[2] = test system: Lolium multiflorum Lam. (Italian ryegrass, LOLMU); assay: Weed control of LOLMU in wheat crop, pre-emergence spray (Example 2); conditions: 450 g/L
Experimental: as §1

[3] = test system: LOLMU (S-strain); assay: Efficacy of pre-emergence spray against resistant weed LOLMU (Example 1); conditions: sprayed at pre-emergence stage
Experimental: Experiments were conducted to assess the efficacy of herbicidal combination comprising napropamide/napropamide-M to control a weed (LOLMU) which is resistant to control by conventional herbicides. Percentage efficacy of the herbicidal combination was determined over time (measured as days after anthesis, [DAA]) following application the of herbicidal combination comprising napropamide/napropamide-M and prosulfocarb. The herbicidal combination was applied by spraying to LOLMU (S-strain) at pre-emergence stage.

CCN(CC)C(=O)C(C)Oc1cccc2ccccc12 (stereo not drawn) [Napropamid, N,N-diethyl-2-(α-naphthoxy) propionamide]
Weight of weed (g/m^2) ([1]; 450 g/L, dose 750 g/Ha): 2.11 g/m^2 | % Decrease in weight of weed ([1]; 450 g/L, dose 750 g/Ha): 27% | Weight of weed (g/m^2) ([1]; 450 g/L, dose 1000 g/Ha): 1.86 g/m^2 | % Decrease in weight of weed ([1]; 450 g/L, dose 1000 g/Ha): 36% | Weed control (%) 15 DAA ([2]; dose 750 g/Ha): 65% | Weed control (%) 25 DAA ([2]; dose 750 g/Ha): 83% | Weed control (%) 45 DAA ([2]; dose 750 g/Ha): 79% | Weed control (%) 15 DAA ([2]; dose 1000 g/Ha): 72% | Weed control (%) 25 DAA ([2]; dose 1000 g/Ha): 86% | Weed control (%) 45 DAA ([2]; dose 1000 g/Ha): 82%

CCN(CC)C(=O)[C@@H](C)Oc1cccc2ccccc12 [Napropamide-M 450 g/L, Napropamide-M]
Control in weed (%) ([3]; dose 315 g/Ha): 69.80%

CCc1cccc(C)c1N(COC(C)C)C(=O)CCl [Propisochlor, propisochlor]
Weight of weed (g/m^2) ([1]; 720 g/L, dose 800 g/Ha): 760 g/m^2 | % Decrease in weight of weed ([1]; 720 g/L, dose 800 g/Ha): 74%

CCCN(CCC)C(=O)SCc1ccccc1 [Prosulfocarb 800 g/L, prosulfocarb]
Control in weed (%) ([3]; dose 2400 g/Ha): 68.14% | Control in weed (%) ([3]; dose 5000 g/Ha): 78.02%

— patent publication US20250081966A1, “HERBICIDE COMBINATIONS” (UPL CORPORATION LIMITED, priority 2021, published 2025)
